Experimental data from PMC5443859, “EGFR-targeting peptide-coupled platinum(IV) complexes” (Journal of Biological Inorganic Chemistry, 2017).

Legend:
A431 cells = test: Long-term clonogenic assay, 14 days; assay type: cell-based, human; settings: 25 and 50 µM, crystal violet, three experiments in duplicates, result in words
Description: Subsequently, the dissolved drugs were added.

H520 cells = test: cells; settings: Homo sapiens, NCI-H520, 72 h, read-out: IC50 ± SD
Description: (§1) The following human cell models were used in this study: the renal cell carcinomas RUMH, the squamous cell carcinoma H520, the epidermoid carcinoma A431, as well as the non-small-cell lung cancer (NSCLC) line HCC827 (sources and used medium are summarized in (Table 2). Unless otherwise indicated, the cells were cultivated in humidified incubators (37 °C, 21% O2, 5% CO2) in full culture medium, containing 10% fetal calf serum (PAA, Linz, Austria). Cell cultures were periodically checked for Mycoplasma contamination.
(§2) Subsequently, the dissolved drugs were added. […] Cytotoxicity was expressed as IC50 values calculated from full dose–response curves using GraphPad Prism software. […] Then, the cells were exposed to the indicated drugs (25 or 50 µM) for 14 days. After washing with phosphate-buffered saline (PBS), the cells were fixed with methanol (−20 °C, 20 min) and after another washing step stained with crystal violet (1 h). […] The sum of fluorescence intensities per well was measured with ImageJ and, after blank subtraction, normalized to the untreated cells.

RUMH cells = test: cells; assay type: cell-based; settings: Homo sapiens, EGFR/wt overexpression, 72 h treatment, MTT assay
Description: as §1, §2

O=C1[O][Pt]2([NH][C@@H]3CCCC[C@H]3[NH]2)[O]C1=O [oxaliplatin]
long-term treatment effect, normalized to untreated cells (A431 cells): too low to be seen in this graph

C#Cc1cccc(Nc2ncnc3cc(OCCOC)c(OCCOC)cc23)c1 [Erlotinib, erlotinib]
IC50 (H520 cells): > 25 µM
IC50 (RUMH cells): 23 ± 2.6 µM
